According to PubChem BioAssay AID1963848 (Molecular Pharmacology Branch, DTP, NCI, 2024):

Test system: 379773-124-R-J2-PDC spheroid viability
Assay: Anticancer human tumor 379773-124-R-J2-PDC patient-derived endometrial carcinoma cell line growth inhibition [POLQ]
Conditions: spheroids with HUVEC and MSC; for IC50: curve of first compound; for viability, T/C: stronger effect = lower value
Procedure, shortened: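 Patient-derived tumour cells were co-cultured with HUVEC and mesenchymal stem cells as multicellular spheroids at 37 °C. They were treated with POLQ inhibitors (novobiocin, ART-558, RP6685) alone or combined with other agents. Top concentrations were at or near clinical Cmax (otherwise 10 microM; SN-38 at 1 microM), decreasing in half-log steps.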
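Further: spheroids exposed to drugs for seven days before readout.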
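Wherever viability, T/C is given: percent viability relative to DMSO vehicle control taken as 100%.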

## CC(=O)O[C@H]1C(=O)[C@@]2(C)[C@H]([C@H](OC(=O)c3ccccc3)[C@]3(O)C[C@H](OC(=O)[C@H](O)[C@@H](NC(=O)c4ccccc4)c4ccccc4)C(C)=C1C3(C)C)[C@]1(OC(C)=O)CO[C@@H]1C[C@@H]2O + Cc1cccc(N(C)C(=O)C2C(O)CCN2c2nc(C)cc(C(F)(F)F)c2C#N)c1
Second compound 0.0316 µM
  IC50: < 0.00949 µM
Second compound 0.1 µM
  IC50: < 0.00949 µM
Second compound 0.316 µM
  IC50: < 0.00949 µM
Second compound 1 µM
  IC50: < 0.00949 µM
Second compound 3.16 µM
  IC50: < 0.00949 µM
Second compound 10 µM
  IC50: < 0.00949 µM
Second compound 0.0316 µM, first compound 0.00949 µM
  viability, T/C: 24.4%
Second compound 0.0316 µM, first compound 0.03 µM
  viability, T/C: 11.6%
Second compound 0.0316 µM, first compound 0.0949 µM
  viability, T/C: 7.9%
Second compound 0.0316 µM, first compound 0.3 µM
  viability, T/C: 12.8%
Second compound 0.0316 µM, first compound 0.949 µM
  viability, T/C: 13.3%
Second compound 0.0316 µM, first compound 3 µM
  viability, T/C: 10.6%
Second compound 0.1 µM, first compound 0.00949 µM
  viability, T/C: 25.5%
Second compound 0.1 µM, first compound 0.03 µM
  viability, T/C: 8.1%
Second compound 0.1 µM, first compound 0.0949 µM
  viability, T/C: 9.59%
Second compound 0.1 µM, first compound 0.3 µM
  viability, T/C: 9.63%
Second compound 0.1 µM, first compound 0.949 µM
  viability, T/C: 10.5%
Second compound 0.1 µM, first compound 3 µM
  viability, T/C: 7.41%
Second compound 0.316 µM, first compound 0.00949 µM
  viability, T/C: 27.3%
Second compound 0.316 µM, first compound 0.03 µM
  viability, T/C: 9.48%
Second compound 0.316 µM, first compound 0.0949 µM
  viability, T/C: 11.7%
Second compound 0.316 µM, first compound 0.3 µM
  viability, T/C: 9.83%
Second compound 0.316 µM, first compound 0.949 µM
  viability, T/C: 10.2%
Second compound 0.316 µM, first compound 3 µM
  viability, T/C: 9.11%
Second compound 1 µM, first compound 0.00949 µM
  viability, T/C: 23.7%
Second compound 1 µM, first compound 0.03 µM
  viability, T/C: 13.9%
Second compound 1 µM, first compound 0.0949 µM
  viability, T/C: 11.9%
Second compound 1 µM, first compound 0.3 µM
  viability, T/C: 10.7%
Second compound 1 µM, first compound 0.949 µM
  viability, T/C: 10.9%
Second compound 1 µM, first compound 3 µM
  viability, T/C: 7.53%
Second compound 3.16 µM, first compound 0.00949 µM
  viability, T/C: 15.8%
Second compound 3.16 µM, first compound 0.03 µM
  viability, T/C: 8.23%
Second compound 3.16 µM, first compound 0.0949 µM
  viability, T/C: 10.8%
Second compound 3.16 µM, first compound 0.3 µM
  viability, T/C: 11.8%
Second compound 3.16 µM, first compound 0.949 µM
  viability, T/C: 10.8%
Second compound 3.16 µM, first compound 3 µM
  viability, T/C: 12%
Second compound 10 µM, first compound 0.00949 µM
  viability, T/C: 16.4%
Second compound 10 µM, first compound 0.03 µM
  viability, T/C: 10.1%
Second compound 10 µM, first compound 0.0949 µM
  viability, T/C: 9.57%
Second compound 10 µM, first compound 0.3 µM
  viability, T/C: 10.7%
Second compound 10 µM, first compound 0.949 µM
  viability, T/C: 10.5%
Second compound 10 µM, first compound 3 µM
  viability, T/C: 7.56%

## CCc1cc2c(N3CCc4c(cc(Cn5ccnc5)cc4-c4cn(C)nc4C(F)(F)F)C3=O)ccnc2c(OC)n1 + Nc1ccc(C#CCN(C(=O)Cc2ncc(C(F)(F)F)cc2C(F)(F)F)c2ccc(F)cc2)nn1
Second compound 0.0316 µM
  IC50: > 10 µM
Second compound 0.1 µM
  IC50: > 10 µM
Second compound 0.316 µM
  IC50: > 10 µM
Second compound 1 µM
  IC50: > 10 µM
Second compound 3.16 µM
  IC50: > 10 µM
Second compound 10 µM
  IC50: > 10 µM
Second compound 0.0316 µM, first compound 0.0316 µM
  viability, T/C: 83.1%
Second compound 0.0316 µM, first compound 0.1 µM
  viability, T/C: 68.2%
Second compound 0.0316 µM, first compound 0.316 µM
  viability, T/C: 61.3%
Second compound 0.0316 µM, first compound 1 µM
  viability, T/C: 59.1%
Second compound 0.0316 µM, first compound 3.16 µM
  viability, T/C: 61.6%
Second compound 0.0316 µM, first compound 10 µM
  viability, T/C: 54.8%
Second compound 0.1 µM, first compound 0.0316 µM
  viability, T/C: 65.1%
Second compound 0.1 µM, first compound 0.1 µM
  viability, T/C: 71.1%
Second compound 0.1 µM, first compound 0.316 µM
  viability, T/C: 61.2%
Second compound 0.1 µM, first compound 1 µM
  viability, T/C: 62.8%
Second compound 0.1 µM, first compound 3.16 µM
  viability, T/C: 56.2%
Second compound 0.1 µM, first compound 10 µM
  viability, T/C: 53.9%
Second compound 0.316 µM, first compound 0.0316 µM
  viability, T/C: 74.3%
Second compound 0.316 µM, first compound 0.1 µM
  viability, T/C: 72.3%
Second compound 0.316 µM, first compound 0.316 µM
  viability, T/C: 67%
Second compound 0.316 µM, first compound 1 µM
  viability, T/C: 64.8%
Second compound 0.316 µM, first compound 3.16 µM
  viability, T/C: 59.1%
Second compound 0.316 µM, first compound 10 µM
  viability, T/C: 49.9%
Second compound 1 µM, first compound 0.0316 µM
  viability, T/C: 84.5%
Second compound 1 µM, first compound 0.1 µM
  viability, T/C: 69%
Second compound 1 µM, first compound 0.316 µM
  viability, T/C: 65.2%
Second compound 1 µM, first compound 1 µM
  viability, T/C: 64.8%
Second compound 1 µM, first compound 3.16 µM
  viability, T/C: 56%
Second compound 1 µM, first compound 10 µM
  viability, T/C: 53.6%
Second compound 3.16 µM, first compound 0.0316 µM
  viability, T/C: 71.4%
Second compound 3.16 µM, first compound 0.1 µM
  viability, T/C: 69.7%
Second compound 3.16 µM, first compound 0.316 µM
  viability, T/C: 65.8%
Second compound 3.16 µM, first compound 1 µM
  viability, T/C: 70.8%
Second compound 3.16 µM, first compound 3.16 µM
  viability, T/C: 60%
Second compound 3.16 µM, first compound 10 µM
  viability, T/C: 52.6%
Second compound 10 µM, first compound 0.0316 µM
  viability, T/C: 85.4%
Second compound 10 µM, first compound 0.1 µM
  viability, T/C: 79.2%
Second compound 10 µM, first compound 0.316 µM
  viability, T/C: 61.6%
Second compound 10 µM, first compound 1 µM
  viability, T/C: 67.5%
Second compound 10 µM, first compound 3.16 µM
  viability, T/C: 55%
Second compound 10 µM, first compound 10 µM
  viability, T/C: 49.6%
